Measurements taken from patent publication US20110117193A1, “ANTIRETROVIRAL DRUG FORMULATIONS FOR TREATMENT OF CHILDREN EXPOSED TO HIV/AIDS” (priority 2008, published 2011).

Experiment: pH of suspensions
Type: physicochemical
Settings: 0.2% w/v solution in water
Experimental: The effect of the suspending agent and sweetener on the pH and viscosity of the suspensions was examined. AVICEL® RC 591, alone and in combination with other potential formulation components, was suspended in water. The pH of the suspensions was measured using a pH meter. The viscosity of the suspensions was measured on a Brookfield […] RV series viscometer: spindle size 4 at 20 rpm was used. The suspensions were visually inspected for signs of precipitation, sedimentation, and consistency.

pH of solution: 6.4
Compound: OC[C@H]1O[C@H](O[C@]2(CCl)O[C@H](CCl)[C@@H](O)[C@@H]2O)[C@H](O)[C@@H](O)[C@H]1Cl [sucralose]
